Assay results from patent publication US10118911B2, “P-toluenesulfonate for MEK kinase inhibitor, and crystal form thereof and preparation method therefor” (Jiangsu Hengrui Medicine Co., Ltd., priority 2015, dated 2018).

Columns and labels:
[1] = Special stability study of crystal form I (grinding, heating, pressing); format: physicochemical
Excerpt: Crystal form I of the compound of formula (I) prepared according to the method of Example 2 was ground, heated and pressed.

[2] = Stability of crystal form I spread flat in the air under lighting, heating and high humidity, purity detected by HPLC; format: physicochemical; conditions: for stability (in words): lighting, high temperature, high humidity, p-toluenesulfonate
Experimental: The product sample of crystal form I prepared in Example 2 was spread flat in the air, to test its stability under conditions of lighting, heating (40° C., 60° C.), and high humidity (RH 75%, RH 90%). Samplings were carried out on Day 5 and Day 10.

MEK kinase = conditions: from PCT/CN2014/085976 of the applicant; cited from earlier work
[3] = Solubility compared to the free base; format: physicochemical
[4] = Bioavailability compared to the free base; format: in vivo
[5] = after grinding treatment for 10 min in a mortar under nitrogen atmosphere
[6] = after heating treatment for 3 h at 80° C.
[7] = after pressing treatment (pressed to a slice)

Compound: Cc1ccc(Oc2cc(=O)n(C)c(Nc3ccc(I)cc3F)c2C(N)=O)cn1.Cc1ccc(S(=O)(=O)O)cc1 [2-((2-fluoro-4-iodophenyl)amino)-1-methyl-4-((6-methylpyridin-3-yl)oxy)-6-oxo-1,6-di hydropyridine-3-carboxamide p-toluenesulfonate]
- Crystal form [1, 5]: form I
- DSC peak [1, 5]: 237.66 °C
- Crystal form [1, 6]: form I
- DSC peak [1, 6]: 237.45 °C
- Crystal form [1, 7]: form I
- DSC peak [1, 7]: 237.75 °C
- stability of the crystal form (in words) ([1]; grinding, pressure and heating): stable
- purity detected by HPLC ([2]; 40° C., day 0): 98.86%
- purity detected by HPLC ([2]; 40° C., day 5): 98.85%
- purity detected by HPLC ([2]; 40° C., day 10): 98.88%
- purity detected by HPLC ([2]; 60° C., day 0): 98.86%
- purity detected by HPLC ([2]; 60° C., day 5): 98.89%
- purity detected by HPLC ([2]; 60° C., day 10): 98.88%
- purity detected by HPLC ([2]; 4500 Lux, day 0): 98.86%
- purity detected by HPLC ([2]; 4500 Lux, day 5): 99.08%
- purity detected by HPLC ([2]; 4500 Lux, day 10): 99.17%
- purity detected by HPLC ([2]; RH75%, day 0): 98.86%
- purity detected by HPLC ([2]; RH75%, day 5): 98.88%
- purity detected by HPLC ([2]; RH75%, day 10): 98.88%
- purity detected by HPLC ([2]; RH90%, day 0): 98.86%
- purity detected by HPLC ([2]; RH90%, day 5): 98.86%
- purity detected by HPLC ([2]; RH90%, day 10): 98.88%
- stability (in words) ([2]; listed as crystal form I): good stability
- stability (in words) [2]: stable

Compound: Cc1ccc(Oc2cc(=O)n(C)c(Nc3ccc(I)cc3F)c2C(N)=O)cn1 [Example 1, 2-((2-fluoro-4-iodophenyl)amino)-1-methyl-4-((6-methylpyridin-3-yl)oxy)-6-oxo-1,6-dihydropyridine-3-carboxamide]
- inhibitory activity against MEK kinase (MEK kinase): strong inhibitory activity

Compound: Cc1ccc(Oc2cc(=O)n(C)c(Nc3ccc(I)cc3F)c2C(N)=O)cn1.Cc1ccc(S(=O)(=O)O)cc1 [compound of formula (I), 2-((2-fluoro-4-iodophenyl)amino)-1-methyl-4-((6-methylpyridin-3-yl)oxy)-6-oxo-1,6-di hydropyridine-3-carboxamide p-toluenesulfonate]
- solubility [3]: greatly improved
- bioavailability [4]: greatly improved
